Our source for the IC50 values is BindingDB's records for doi:10.7270/Q2736T2X (n/a, 1995).

Broadly, the IC50 is the concentration needed to halve the response being measured. A low value points to inhibition by little substance.

Structures are written as SMILES.

Assay [1] deals with Muscarinic acetylcholine receptor M1/M2/M3/M4/M5. Put plainly: Binding affinity towards muscarinic receptor using [3H]quinuclidinyl benzilate (QNB) to label antagonist sites in membrane preparations from rat neocortex.
The target is the same in assay [2]. Put plainly: Binding affinity towards muscarinic receptor using [3H]cis-methyldioxolane (CMD) to label agonist sites in membrane preparations from rat neocortex.

In the case of `O=[N+]([O-])c1cccc(C#CCO[N-][C+]2CN3CCC2C3)c1` (configuration not stated) [1-Aza-bicyclo[2.2.1]heptan-3-one O-[3-(3-nitro-phenyl)-prop-2-ynyl]-oxime], the results for the IC50 in assay [1] and in assay [2] were 6.4 µM and 0.028 µM, respectively.
